Marks after values point to notes of the source that are not given here.
Legend:
[1] = Phase 1 multiple-dose study in healthy volunteers: safety and tolerability; type: in vivo, human
Text: Methods. The trial was a Phase 1, randomized, escalating multiple dose, single center study conducted in 2 stages.

HeLa cells = assay: Cell Titer Glo cytotoxicity / cell viability assay in HeLa cells (CC50); type: cell-based, human; conditions: any concentration tested
Text: A dose-response analysis may be performed using the ELISA assay and conditions described above. The conditions for the dose-response ELISA are analogous to those described above. A series of, e.g., seven different concentrations may be analyzed. In parallel, a dose-response cytotoxicity assay may be performed using Cell Titer Glo (Promega) under the same conditions as the ELISA to ensure that the inhibition of VEGF expression was not due to the cytotoxicity.
Experimental Design. HeLa (human cervical carcinoma) cell cultures were established under normoxic conditions (21% oxygen). HeLa cells increase VEGF production 4- to 5-fold in response to hypoxia. […] At the completion of treatment, the conditioned media were collected and the VEGF protein levels were assayed in an enzyme-linked immunosorbent assay (ELISA) with primary antibodies that recognize the soluble VEGF121 and VEGF165 isoforms (R & D Systems, Minneapolis, Minn., USA). To ensure that decreases in VEGF concentration were not due to cytotoxicity, cultures were assayed using a standard assay ([…]-GLO® Luminescent Cell Viability Assay; Promega, Madison, Wis., USA) that measures total cellular adenosine triphosphate (ATP) concentrations as an indicator of cell viability.

[2] = Oral pharmacokinetics in mice; type: in vivo
Procedure: The pharmacokinetic evaluations in mice were adjuncts to the primary pharmacodynamic xenograft studies. The evaluations in rats included toxicokinetic assessments in single-dose, 7-day, and 28-day toxicology studies as well as a mass-balance study after a single oral dose of ^14C-Compound #10. The evaluations in dogs included toxicokinetic assessments in 7-day and 28-day toxicology studies. In the studies performed, rodents were dosed once daily with Compound #10 formulated in vehicle and administered via oral gavage.

HT1080 cells = assay: Cell cycle analysis by propidium iodide flow cytometry in HT1080 cells (percent cells in S-phase, Table 24); type: cell-based, human; conditions: HT1080, normoxic, 18 hours
Procedure: Experimental Design. […] After treatment, cells were trypsinized, and stained with propidium iodide (PI) dye to measure DNA content of individual cells by flow cytometry. Output comprised histograms showing relative DNA content in 10,000 cells.
While compounds which cause greater than 20% of the cells to accumulate in S-phase at 100 nM are considered active, a larger percentage of cells may be accumulated in S-phase at lower doses depending on the Compound, as shown in FIG. 12 for example.

MDA-MB-468 xenografts = assay: MDA-MB-468 estrogen-insensitive breast cancer xenograft: tumor growth; type: in vivo
Procedure: Tumor size was measured by calipers at periodic intervals. When the individual tumor size in a mouse exceeded 1500 mm^3, that mouse was sacrificed and both tumor and plasma were assayed for pathologic VEGF concentration as described in Section 9.1.1.1.

IL-6 = assay: Patients: serum and plasma IL-6 levels; type: in vivo, human
Procedure: Subjects with NF2 may receive continuous daily treatment with a Compound administered at 100 mg per dose, 2 times a day (BID) for up to 1 year, or longer as appropriate, or until tumor progression. […] Tumor shrinkage or an improvement in hearing are indicators of efficacy.
Anti-angiogenic activity: Assessing VEGF concentrations provides a relevant and convenient mechanism-specific marker of Compound activity. […] For example, clinically validated ELISA kits (e.g., from R&D Systems, Minneapolis, Minn.) may be used to measure concentrations of VEGF, VEGF-C, P1GF, VEGFR, and inflammatory mediators such as IL-6 and IL-8. CT scan and MRI scan may also be used to assess peritumoral inflammation or edema.
Blood for VEGF, VEGFR, and Cytokines. Two blood samples (1 for plasma and 1 for serum) may be obtained for assessment of VEGF, VEGFR, and cytokine levels.
After processing, samples may be placed into a freezer at approximately −70° C. An ELISA-based multiplex system may be used to measure plasma VEGF and cytokine levels.

[3] = test system: soluble VEGF121 and VEGF165 isoforms; assay: VEGF inhibition EC50 by ELISA in the same human tumor cell lines (Table 25); type: cell-based
Procedure: Results. […] The conditioned media were collected and assayed by ELISA for soluble VEGF121 and VEGF165 isoforms (as described in Section 9.1.1.1); results were calculated as percentage inhibition relative to vehicle treated controls. EC50 values were calculated from the concentration response curves.

HT1080 spheroids = assay: 3-dimensional growth of HT1080 spheroids (BrdU / 7-AAD FACS, morphology); type: cell-based, human
Procedure: Experimental Design. HT1080 cells grown as a monolayer were trypsinized and seeded onto a 0.75% agar noble base to prevent the cells from attaching to the bottom of the tissue culture plate and to allow/promote the cells to self-adhere and grow as 3-dimensional spheroids. […] The cells were incubated for 22 and 45 hours at 37° C., in the presence of a 10% CO2 atmosphere. Spheroids were visually checked daily for morphological changes and a medium was replenished two times per week. […] These pulse labeled spheroids were then harvested, washed and trypsinized (triple action solution, Gibco), pelleted and prepared for FACS analysis with a FITC BrdU Flow Kit, (BD Pharmingen). Cells were fixed and permeabilized with paraformadehyde and DNA stained with 7-AAD followed by incubation with an antibody which specifically recognizes […] incorporated into DNA. As described in Section 9.3.1.4. Cells were analyzed and sorted by 7-AAD signal (DNA content) to determine cell cycle phase, and BrdU content (percent actively synthesizing DNA).
Spheroids, prepared as above, were treated with either vehicle alone (0.5% DMSO v/v final) added to the media or a Compounds provided herein (10 nM or 50 nM final concentration) in media to which vehicle has been added.

[4] = target: human-ether-a-go-go-related gene (hERG) current (Homo sapiens, UniProt Q12809); assay: Higher throughput hERG assay; type: cell-based
[5] = 28-day oral toxicity study in dogs (15-day recovery)
Procedure: The L23 vehicle was used. […] All studies in the toxicology program were conducted according to GLP regulations.

Sequence of human-ether-a-go-go-related gene (hERG) current (Q12809 whole entry): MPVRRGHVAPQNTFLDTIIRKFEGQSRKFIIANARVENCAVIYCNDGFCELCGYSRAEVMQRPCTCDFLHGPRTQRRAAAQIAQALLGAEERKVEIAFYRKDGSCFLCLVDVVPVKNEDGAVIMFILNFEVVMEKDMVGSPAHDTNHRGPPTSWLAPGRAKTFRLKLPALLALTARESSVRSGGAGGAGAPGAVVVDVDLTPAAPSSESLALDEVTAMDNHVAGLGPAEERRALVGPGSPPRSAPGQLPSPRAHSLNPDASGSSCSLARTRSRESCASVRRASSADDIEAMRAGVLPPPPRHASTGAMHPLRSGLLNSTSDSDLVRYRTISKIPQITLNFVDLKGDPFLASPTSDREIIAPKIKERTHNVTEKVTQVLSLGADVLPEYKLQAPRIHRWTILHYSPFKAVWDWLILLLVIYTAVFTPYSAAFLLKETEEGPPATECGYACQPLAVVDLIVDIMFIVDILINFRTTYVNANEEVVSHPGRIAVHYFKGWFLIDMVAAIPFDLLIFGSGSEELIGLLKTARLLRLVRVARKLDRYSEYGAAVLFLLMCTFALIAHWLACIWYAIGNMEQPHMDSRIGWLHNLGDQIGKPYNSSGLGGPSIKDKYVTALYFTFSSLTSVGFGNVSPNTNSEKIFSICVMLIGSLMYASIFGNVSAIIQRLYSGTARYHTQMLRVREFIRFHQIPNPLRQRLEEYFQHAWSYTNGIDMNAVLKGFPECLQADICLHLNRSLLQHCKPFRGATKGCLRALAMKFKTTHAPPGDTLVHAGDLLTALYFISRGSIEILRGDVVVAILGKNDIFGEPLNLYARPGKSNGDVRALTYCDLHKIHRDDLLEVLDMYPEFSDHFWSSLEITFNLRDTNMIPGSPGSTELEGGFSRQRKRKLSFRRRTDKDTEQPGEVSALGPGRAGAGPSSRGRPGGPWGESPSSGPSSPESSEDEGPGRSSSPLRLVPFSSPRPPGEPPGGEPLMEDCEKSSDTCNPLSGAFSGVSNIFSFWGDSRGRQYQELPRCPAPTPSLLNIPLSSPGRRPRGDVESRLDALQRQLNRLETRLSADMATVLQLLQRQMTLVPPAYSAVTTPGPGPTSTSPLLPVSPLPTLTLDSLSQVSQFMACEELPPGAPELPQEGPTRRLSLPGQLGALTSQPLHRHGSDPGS

SMILES: COc1ccc(C2c3[nH]c4ccc(Cl)cc4c3CCN2C(=O)Oc2ccc(Cl)cc2)cc1 (racemic) [Compound #10]
- Grade of treatment emergent adverse events and laboratory abnormalities ([1]; healthy volunteers, 7 days): generally Grade 1
- QTc prolongation ([1]; healthy volunteers, 7 days): no meaningful QTc prolongation
- Maximum tolerated dose ([1]; through the highest dose level tested ([…] TID)): No MTD was established
- Cytotoxicity (cellular ATP) (HeLa cells): No cytotoxicity was observed
- Oral bioavailability [2]: orally bioavailable
- concentration at 24 h ([2]; mouse, plasma, oral, 1-mg/kg dose level, Day 1, read-out: Plasma trough concentration at 24 hours): 100 to 150 ng/mL
- Concentration from which accumulation of cells in S phase is observed (HT1080 cells): ≥ 1 nM
- Effect on cell cycle distribution (FIG. 12, FIG. 24) (HT1080 cells; Compound #10 0.3-100 nM, Compound 1205 10 nM): induced a redistribution of the cycling characteristics
- Mean % Inhibition of Tumor Size vs Vehicle at Day 12 (MDA-MB-468 xenografts; 10 mg/kg oral QD): 65* %
- Median Time to Tumor Size ≧1000 mm^3 (MDA-MB-468 xenografts; 10 mg/kg oral QD): 25 days
- Toxicity on observing the animals (MDA-MB-468 xenografts; MDA-MB-468 xenograft mice, 10 mg/kg QD): no evidence of toxicity
- Plasma IL-6 levels in patients (FIG. 38) (IL-6): reduced
- EC50 ([3]; Homo sapiens, ASPC1, ASPC-1 (Pancreas), 48 hours): > 30000 nM
- EC50 ([3]; Homo sapiens, HCT-116, HCT116 (Colorectal), 48 hours): 10 nM
- EC50 ([3]; Homo sapiens, HT-1080, HT1080 (Fibrosarcoma), 48 hours): 10 nM
- EC50 ([3]; Homo sapiens, PL45, PL-45, 48 hours): > 30000 nM
- EC50 ([3]; Homo sapiens, HEK293 (Renal cell), 48 hours): 10 nM
- EC50 ([3]; Homo sapiens, HPAF-2, 48 hours): > 30000 nM
- EC50 ([3]; Homo sapiens, HeLa (Cervical), 48 hours): 2 nM
- EC50 ([3]; Homo sapiens, NCI H460 (Lung), 48 hours): 10 nM
- EC50 ([3]; Homo sapiens, U-87MG (Glioblastoma), 48 hours): > 30000 nM
- EC50 ([3]; PC-3, 48 hours): > 30000 nM
- Cell cycle distribution of HT1080 spheroids (HT1080 spheroids; 24 or 48 hours): not affected
- Percentage of spheroid cells that incorporated BrdU (HT1080 spheroids; 24 or 48 hours): not significantly altered
- Morphology of spheroids (HT1080 spheroids; maintained in the presence of compound for three weeks, data not shown): no obvious morphological changes
- Inhibition of hERG current [4]: negative for meaningful inhibition
- Dose of maximal exposures [5]: 30 mg/kg/dose BID
- Target organ of toxicity ([5]; high dose): small intestine

Reference: US20120157401A1, “METHODS FOR TREATING NEUROFIBROMATOSIS” (PTC Therapeutics, Inc., priority 2009, published 2012)
